Like-named read-outs stand apart in the source and are kept apart here.
How the values were obtained:
c-Cbl = assay type: cell-based, rat
Procedure, shortened: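 Pre-cleared cell lysates (250 μg total protein) immunoprecipitated with anti-c-Cbl or anti-PDGFRα antibody (2 h, 4° C), then protein A/G agarose overnight at 4° C. Precipitates run on 8% SDS-PAGE and Western blotted with anti-p-Tyr (c-Cbl phosphorylation) or anti-ubiquitin (PDGFR ubiquitylation).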

O-2A/OPCs [1] = assay: Analysis of Pb uptake (Leadmium Green AM); assay type: cell-based, rat; details: 1 μM Pb, 1 mM NAC
Method: Pre-treatment with NAC was assayed to determine whether levels of intracellular Pb was altered using analysis with the Leadmium Green AM dye (Molecular Probes), according to the manufacturer's instructions. […] (unpaired t-test), and the values for both Pb-treated samples were several-fold higher than control values.

cancer cells = assay: Cancer cell viability (MTT assays), FIG. 22; assay type: cell-based; details: TMX 1-50 μM, 48 hours
O-2A/OPCs [2] = assay: Intracellular ROS / redox state measurement; assay type: cell-based, rat; details: O-2A/OPCs in PDGF; MeHg, exposure levels as low as 20 nM
Method: Cells were plated in 96-well microplates and grown to about 60% continence. […] Cells were then washed once with HBSS and growth medium to remove free probe. Then, fresh growth medium was added and a baseline fluorescence reading was taken prior to treatment. For NAC pre-treatment. […] Fluorescence was measured in a Wallac 1420 Victor2 multilabel counter (PerkinElmer) using excitation and emission wavelengths of 485 nm and 535 nm, respectively, at different time courses as indicated in the figures. Results are presented as the value change from baseline by the formula (Ftexp−Ftbase)/Ftbase normalized with the control group, where Ftexp=fluorescence at any given time during the experiment in a give well and Ftbase=baseline fluorescence of the same well.

TrkC [3] = assay type: cell-based, rat; details: MeHg, Pb or paraquat
Procedure, shortened: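 Western blot of cell lysates or sonicated tissue in RAPI buffer, SDS-PAGE to PVDF, primary antibodies (phospho-Erk, phospho-Akt, receptor, phospho-tyrosine), HRP secondary and luminol detection. Signaling analysed in presence of the cognate ligand: EGF for EGFR, NT-3 for TrkC, HGF for c-Met.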

[4] = Brain mercury levels in offspring after maternal drinking water exposure; assay type: in vivo, mice
Method: Six-week-old female SJL mice were treated with MeHg in their drinking water at a concentration of 100 or 250 ppb for 30-60 d prior to mating, and then throughout pregnancy and gestation. This is a level of treatment that is 75%-90% below levels generally considered to be low to moderate and is below levels that have been associated with gross defects in adult or developing animals (e.g., [69-73]).
In the present study, exposure of female mice to MeHg in their drinking water at a concentration of 250 ppb prior to conception, and maintenance of this exposure during suckling, was associated with brain mercury levels in the offspring (examined at P.14) of 50 ng/g, a fall that was precisely in agreement with predictions based on prior studies on the fall of mercury levels occurring during this period in suckling mice. […] The exposure levels of 100 and 250 ppb are 75%-90% below what has otherwise been considered to be low-dose exposure in mice.

PDGFRα = PDGFRα levels in brain tissue after developmental exposure; assay type: in vivo, SJL mice; details: 100 or 250 ppb MeHg in maternal drinking water; cerebellum, hippocampus, corpus callosum; 7 and 21 d after birth
From the text: (§1) Anti-phosphorylated Erk monoclonal, anti-Erk monoclonal, anti-TrkC polyclonal anti-Fyn polyclonal, anti-EGFR polyclonal, anti-c-Met polyclonal, anti-phospho-tyrosine monoclonal, and anti-PDGFRα polyclonal antibodies were obtained from Santa Cruz Biotechnology (Santa Cruz, Calif., United States). Anti-c-Cbl monoclonal antibody was obtained from BD PharMingen (San Diego, Calif., United States). Anti-phosphorylated Akt monoclonal and anti-Akt polyclonal antibodies were obtained from Cell Signaling Technology (Beverly, Mass., United States). Anti-phosphorylated PDGPRα polyclonal antibody was obtained from Biosource (Carlsbad, Calif., United States). The cell culture samples were collected and lysed in RAPI buffer, whereas dissected tissue samples were sonicated in RAPI buffer. Samples were resolved on SDS-PAGE gels and transferred to PVDF membranes (PerkinElmer Life Science. Wellesley, Mass., United States), After being blocked in 5% skim milk in PBS containing 0.1% Tween 20, membranes were incubated with a primary antibody, followed by incubation with an HRP-conjugated secondary antibody (Santa Cruz Biotechnology). Membranes were visualized using Western Blotting Luminol Reagent (Santa Cruz Biotechnology). […]

EGFR = EGFR levels in brain tissue after developmental exposure; assay type: in vivo, SJL mice; details: 100 or 250 ppb MeHg in maternal drinking water; 7 and 21 d after birth
From the text: as §1

TrkC [5] = assay: TrkC levels in brain tissue after developmental exposure; assay type: in vivo, SJL mice; details: 100 or 250 ppb MeHg in maternal drinking water
From the text: as §1

[6] = 14 mo of age, cited from earlier work

With `CC(=O)N[C@@H](CS)C(=O)O` [NAC, N-acetyl-L-cysteine] the “effect on levels of c-Cbl phosphorylation without toxicant” value (c-Cbl; 1 mM NAC in the absence of toxicants) was “did not have any marked effect”, the “effect on TMX-induced activation of c-Cbl” value (c-Cbl; NAC 1 mM, PP1 100 nM or ICI 182,780 200 nM with TMX) was “blocked” and the “effect on MeHg-induced c-Cbl phosphorylation” value (c-Cbl; added 1 h before MeHg) was “blocked”. The “effect on Pb- and paraquat-induced c-Cbl phosphorylation” value (c-Cbl; added 1 h before Pb or paraquat) was “blocked”, the “effect on Aβ-induced increase in phosphorylated c-Cbl” value (c-Cbl; co-exposure with Aβ) was “blocked” and the “Pb levels in cells, Pb versus Pb and NAC” value (O-2A/OPCs [1]) was “no significant difference”. For the same molecule, the “effect on TMX effects on cancer cells” value (cancer cells) was “not blocked”.
With `[CH3][Hg][Cl]` [MeHg, methylmercury] the “cells more oxidized (intracellular redox state)” value (O-2A/OPCs [2]) was “approximately 20%”, the “levels of TrkC after toxicant exposure” value (TrkC [3]) was “no reduction in levels of TrkC” and the “c-Cbl phosphorylation after toxicant exposure” value (c-Cbl; 30 nM MeHg, 1 μM Pb, 5 μM paraquat) was “stimulated”. For the same molecule, the “brain mercury in offspring” value ([4]; 100 ppb MeHg in maternal drinking water) was “below the levels of detection”, the “brain mercury levels in the offspring” value ([4]; 250 ppb MeHg in maternal drinking water, examined at P14) was 50 ng/g and the “levels of PDGFRα in brain” value (PDGFRα) was “clear and significant reductions”. For the same molecule, the “levels of EGFR in brain” value (EGFR) was “clear and significant reductions”, the “levels of TrkC in brain” value (TrkC [5]) was “not reduced” and the “brain levels of MeHg” value ([6]; 1 ppm in drinking water from conception) was 1.20 mg/kg. The “brain levels of MeHg” value ([6]; 3 ppm in drinking water) was 3.66 mg/kg.
